Source: US20260265175A1, “METHOD FOR OBTAINING ORGANIC ACIDS FROM AN AQUEOUS MOTHER LIQUOR” (Covestro Deutschland AG, priority 2022, published 2026)

Key:
[1] = Precipitation of 2-aminobenzoic acid (oAB) from aqueous solution as metal compound; residual oAB in supernatant by HPLC; format: physicochemical; conditions: value is the detection limit
Description: The pH was adjusted to about 3.5 with a 1M NaOH solution (corresponding to the isoelectric point of oAB). […] The solid (Cu(oAB)2, Fe(oAB)2 and/or Mn(oAB)2) was separated from the liquid phase by centrifugation.

[2] = Cu(OH)2 roughly stoichiometric, pH 4.5, starting solution 12 g/L

adipic acid concentration in liquid phase after precipitation with recycled Cu(OH)2 (sample C) [2] | Compound | oAB concentration in aqueous supernatant after precipitation of the metal compound of the organic acid (sample A) ([1]; CuSO4, FeSO4 or MnSO4, metal salt:oAB 1:2, pH about 3.5, room temperature, starting solution 5 g/L) | oAB concentration in liquid phase after precipitation with recycled metal hydroxide (sample C) ([1]; after addition both of Fe(OH)2 and Cu(OH)2, pH 3.5, starting solution 5 g/L)
 | Nc1ccccc1C(=O)O [oAB, 2-Aminobenzoic acid] | < 0.05 goAB/L | < 0.05 goAB/L
3 g/L | O=C(O)CCCCC(=O)O [adipic acid, Adipic acid] |  | 
